In patent US9340590B2 (priority 2011, dated 2016):
Positions of bridges follow the written chain, without caps; N, C: chain ends. Residues, ends and D or L forms follow the SMILES beside them.

Tests used:
Test in all cases: cell-based
hNav1.5 = hNav1.5 (Homo sapiens, UniProt Q14524); conditions: IonWorks Quattro, use-dependent block, hNav1.5; read-out: IWQ Use Nav1.5
hNav1.3 = hNav1.3 (Homo sapiens, UniProt Q9NY46); conditions: IonWorks Quattro, use-dependent block, hNav1.3; read-out: IWQ Use Nav1.3
hNav1.7 = hNav1.7 (Homo sapiens, UniProt Q15858); format: cell-based; conditions: IonWorks Quattro, use-dependent block, hNav1.7; read-out: IWQ Use Nav1.7
Sequence of hNav1.7 (Q15858 whole entry, looked up): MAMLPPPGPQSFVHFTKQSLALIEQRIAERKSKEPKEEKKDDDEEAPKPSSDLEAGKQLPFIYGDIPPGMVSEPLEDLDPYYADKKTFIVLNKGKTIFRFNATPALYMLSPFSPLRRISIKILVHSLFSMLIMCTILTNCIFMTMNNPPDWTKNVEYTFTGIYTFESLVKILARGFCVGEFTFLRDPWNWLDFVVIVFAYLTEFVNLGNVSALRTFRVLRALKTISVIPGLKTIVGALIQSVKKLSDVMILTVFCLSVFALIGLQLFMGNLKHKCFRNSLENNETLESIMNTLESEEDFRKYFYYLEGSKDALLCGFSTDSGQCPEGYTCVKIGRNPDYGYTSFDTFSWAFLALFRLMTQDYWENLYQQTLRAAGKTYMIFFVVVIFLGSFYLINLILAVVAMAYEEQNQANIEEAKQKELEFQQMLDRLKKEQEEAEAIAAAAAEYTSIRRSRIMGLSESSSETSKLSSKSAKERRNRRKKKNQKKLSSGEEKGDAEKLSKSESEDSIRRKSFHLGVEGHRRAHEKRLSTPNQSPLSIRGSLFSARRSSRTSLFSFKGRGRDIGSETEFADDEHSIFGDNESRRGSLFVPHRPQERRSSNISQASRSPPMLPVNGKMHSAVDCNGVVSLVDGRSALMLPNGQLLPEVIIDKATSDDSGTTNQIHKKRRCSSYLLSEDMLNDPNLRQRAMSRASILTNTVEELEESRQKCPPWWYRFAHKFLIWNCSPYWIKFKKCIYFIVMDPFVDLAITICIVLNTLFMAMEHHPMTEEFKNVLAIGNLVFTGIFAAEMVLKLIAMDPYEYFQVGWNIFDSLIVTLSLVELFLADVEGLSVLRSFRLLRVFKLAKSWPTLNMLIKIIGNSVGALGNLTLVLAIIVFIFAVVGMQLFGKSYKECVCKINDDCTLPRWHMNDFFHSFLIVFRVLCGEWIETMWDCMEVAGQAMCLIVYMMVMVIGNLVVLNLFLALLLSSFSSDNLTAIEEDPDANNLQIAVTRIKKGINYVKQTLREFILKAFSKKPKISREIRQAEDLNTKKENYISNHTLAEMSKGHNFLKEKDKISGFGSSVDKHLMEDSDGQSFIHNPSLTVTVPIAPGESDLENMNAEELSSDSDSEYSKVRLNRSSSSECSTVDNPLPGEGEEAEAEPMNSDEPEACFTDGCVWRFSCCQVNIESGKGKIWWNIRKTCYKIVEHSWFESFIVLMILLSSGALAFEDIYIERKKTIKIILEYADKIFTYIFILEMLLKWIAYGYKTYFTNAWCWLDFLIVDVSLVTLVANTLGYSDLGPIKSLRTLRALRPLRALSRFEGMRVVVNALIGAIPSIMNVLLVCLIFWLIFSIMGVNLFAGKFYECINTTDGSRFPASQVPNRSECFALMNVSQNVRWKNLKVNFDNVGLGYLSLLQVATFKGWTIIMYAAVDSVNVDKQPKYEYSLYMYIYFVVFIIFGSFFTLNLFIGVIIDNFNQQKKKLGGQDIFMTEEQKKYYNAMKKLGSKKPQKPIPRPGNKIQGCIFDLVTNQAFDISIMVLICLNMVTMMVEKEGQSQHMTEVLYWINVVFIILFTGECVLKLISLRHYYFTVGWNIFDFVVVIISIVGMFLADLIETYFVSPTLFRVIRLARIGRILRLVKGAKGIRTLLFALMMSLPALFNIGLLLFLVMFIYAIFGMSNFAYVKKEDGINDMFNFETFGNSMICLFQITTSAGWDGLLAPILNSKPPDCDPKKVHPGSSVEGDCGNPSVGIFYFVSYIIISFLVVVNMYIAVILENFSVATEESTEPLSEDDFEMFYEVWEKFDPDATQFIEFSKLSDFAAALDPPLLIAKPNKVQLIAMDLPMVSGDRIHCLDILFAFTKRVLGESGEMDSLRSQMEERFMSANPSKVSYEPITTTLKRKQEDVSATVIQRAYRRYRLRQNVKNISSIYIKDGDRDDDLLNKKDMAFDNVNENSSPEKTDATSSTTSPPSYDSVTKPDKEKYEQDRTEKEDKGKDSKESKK

Sequence of hNav1.5 (Q14524 whole entry, looked up): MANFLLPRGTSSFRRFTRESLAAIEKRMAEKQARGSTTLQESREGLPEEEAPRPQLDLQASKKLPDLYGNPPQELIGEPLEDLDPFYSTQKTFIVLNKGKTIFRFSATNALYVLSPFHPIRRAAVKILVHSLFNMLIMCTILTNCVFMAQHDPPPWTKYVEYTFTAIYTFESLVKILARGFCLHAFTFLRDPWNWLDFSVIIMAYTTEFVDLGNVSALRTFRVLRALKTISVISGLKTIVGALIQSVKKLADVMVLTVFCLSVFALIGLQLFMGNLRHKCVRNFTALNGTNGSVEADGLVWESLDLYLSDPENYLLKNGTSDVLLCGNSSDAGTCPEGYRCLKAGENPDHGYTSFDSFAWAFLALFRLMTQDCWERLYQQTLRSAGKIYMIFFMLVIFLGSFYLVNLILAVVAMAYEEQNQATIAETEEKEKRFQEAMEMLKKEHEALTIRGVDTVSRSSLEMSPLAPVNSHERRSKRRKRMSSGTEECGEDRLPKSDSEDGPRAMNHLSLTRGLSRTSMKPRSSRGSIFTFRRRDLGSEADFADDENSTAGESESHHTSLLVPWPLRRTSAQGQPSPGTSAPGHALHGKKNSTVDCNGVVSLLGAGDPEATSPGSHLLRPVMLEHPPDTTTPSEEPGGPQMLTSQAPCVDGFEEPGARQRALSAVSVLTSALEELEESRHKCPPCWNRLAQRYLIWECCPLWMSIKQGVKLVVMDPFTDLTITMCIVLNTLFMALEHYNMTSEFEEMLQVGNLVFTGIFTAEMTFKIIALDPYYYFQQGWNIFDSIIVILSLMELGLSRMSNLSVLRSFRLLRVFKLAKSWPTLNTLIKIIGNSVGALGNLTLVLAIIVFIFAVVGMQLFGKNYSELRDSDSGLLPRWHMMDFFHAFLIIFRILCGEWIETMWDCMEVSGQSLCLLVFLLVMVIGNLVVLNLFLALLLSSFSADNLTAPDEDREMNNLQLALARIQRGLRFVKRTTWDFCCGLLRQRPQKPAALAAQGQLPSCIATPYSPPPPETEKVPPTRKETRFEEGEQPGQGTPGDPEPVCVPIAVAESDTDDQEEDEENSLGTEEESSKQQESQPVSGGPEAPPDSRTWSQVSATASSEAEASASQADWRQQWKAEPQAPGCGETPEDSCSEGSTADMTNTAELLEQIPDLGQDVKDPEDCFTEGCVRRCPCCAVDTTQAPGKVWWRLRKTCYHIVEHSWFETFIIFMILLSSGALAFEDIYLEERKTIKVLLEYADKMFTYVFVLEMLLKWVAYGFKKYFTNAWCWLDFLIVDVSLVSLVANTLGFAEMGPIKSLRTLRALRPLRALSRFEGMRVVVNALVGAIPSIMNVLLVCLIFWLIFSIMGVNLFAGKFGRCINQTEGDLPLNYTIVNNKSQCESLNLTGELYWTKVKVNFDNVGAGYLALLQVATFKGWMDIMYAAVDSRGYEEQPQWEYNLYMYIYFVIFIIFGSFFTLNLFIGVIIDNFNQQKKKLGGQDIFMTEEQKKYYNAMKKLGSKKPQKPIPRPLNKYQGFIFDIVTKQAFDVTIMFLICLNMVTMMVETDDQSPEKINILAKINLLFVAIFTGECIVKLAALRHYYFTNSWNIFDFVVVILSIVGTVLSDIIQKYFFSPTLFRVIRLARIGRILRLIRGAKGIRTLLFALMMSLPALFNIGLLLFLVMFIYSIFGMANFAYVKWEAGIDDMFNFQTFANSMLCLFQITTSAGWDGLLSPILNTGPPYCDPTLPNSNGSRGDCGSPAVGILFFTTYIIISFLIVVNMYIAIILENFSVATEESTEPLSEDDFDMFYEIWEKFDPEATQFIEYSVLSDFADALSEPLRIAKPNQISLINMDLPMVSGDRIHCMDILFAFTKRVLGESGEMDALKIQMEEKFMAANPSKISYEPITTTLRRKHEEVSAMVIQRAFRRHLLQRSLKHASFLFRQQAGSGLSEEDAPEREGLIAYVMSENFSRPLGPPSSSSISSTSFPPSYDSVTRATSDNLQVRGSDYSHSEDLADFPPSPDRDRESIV

Structure (SMILES)	IC50 (hNav1.5) [µM]	IC50 (hNav1.3) [µM]	IC50 (hNav1.7) [µM]
CC[C@H](C)[C@@H]1NC(=O)[C@H](CC(=O)O)NC(=O)[C@@H]2CCCN2C(=O)[C@H]([C@@H](C)CC)NC(=O)[C@@H]2CSSC[C@@H]3NC(=O)[C@H](C(C)C)NC(=O)[C@H](CC(C)C)NC(=O)[C@H](CC(N)=O)NC(=O)[C@@H]4CCCN4C(=O)[C@H](CCCNC(=N)N)NC(=O)[C@H](CSSC[C@H](NC(=O)[C@@H](N)CC(=O)O)C(=O)N[C@@H](CC(C)C)C(=O)NCC(=O)N[C@@H](C)C(=O)N[C@@H](CC(C)C)C(=O)N[C@@H](CCCNC(=N)N)C(=O)N[C@@H](CCCCN)C(=O)N2)NC(=O)[C@H](CSSC[C@@H](C(=O)N[C@@H](CCCCN)C(=O)N[C@@H](Cc2ccc(O)cc2)C(=O)N[C@H](C(=O)N[C@@H](Cc2ccccc2)C(=O)O)C(C)C)NC(=O)[C@H](Cc2c[nH]c4ccccc24)NC(=O)[C@H](CCCNC(=N)N)NC(=O)[C@H](Cc2c[nH]cn2)NC(=O)[C@H]([C@@H](C)O)NC(=O)[C@H](CCCNC(=N)N)NC(=O)[C@H](CO)NC3=O)NC(=O)[C@H](CCCCN)NC(=O)[C@H](CC(=O)O)NC1=O [compound 865] (H-DCLGALRKCIPDIDKCCRPNLVCSRTHRWCKYVF-OH; disulfide 2-17, 9-23, 16-30)	> 5	> 5	> 5
CC[C@H](C)[C@@H]1NC(=O)[C@@H]2CSSC[C@@H]3NC(=O)[C@H](C(C)C)NC(=O)[C@H](CC(C)C)NC(=O)[C@H](CC(N)=O)NC(=O)[C@@H]4CCCN4C(=O)[C@H](CCCNC(=N)N)NC(=O)[C@H](CSSC[C@H](NC(=O)[C@@H](N)CC(=O)O)C(=O)N[C@@H](CC(C)C)C(=O)NCC(=O)N[C@@H](C)C(=O)N[C@@H](CC(C)C)C(=O)N[C@@H](CCCNC(=N)N)C(=O)N[C@@H](CCCCN)C(=O)N2)NC(=O)[C@H](CSSC[C@@H](C(=O)N[C@@H](CCCCN)C(=O)N[C@@H](Cc2ccc(O)cc2)C(=O)N[C@H](C(=O)N[C@@H](Cc2ccccc2)C(=O)O)C(C)C)NC(=O)[C@H](Cc2c[nH]c4ccccc24)NC(=O)[C@H](CCCNC(=N)N)NC(=O)[C@H](Cc2c[nH]cn2)NC(=O)[C@H]([C@@H](C)O)NC(=O)[C@H](CCCNC(=N)N)NC(=O)[C@H](CO)NC3=O)NC(=O)[C@H](CCCCN)NC(=O)[C@H](CC(=O)O)NC(=O)[C@H](CCCCN)NC(=O)[C@H](CC(=O)O)NC(=O)[C@@H]2CCCN2C1=O [compound 866] (H-DCLGALRKCIPDKDKCCRPNLVCSRTHRWCKYVF-OH; disulfide 2-17, 9-23, 16-30)	> 5	2.3	> 5
CC[C@H](C)[C@@H]1NC(=O)[C@@H]2CSSC[C@@H]3NC(=O)[C@H](C(C)C)NC(=O)[C@H](CC(C)C)NC(=O)[C@H](CC(N)=O)NC(=O)[C@@H]4CCCN4C(=O)[C@H](CCCNC(=N)N)NC(=O)[C@H](CSSC[C@H](NC(=O)[C@@H](N)CC(=O)O)C(=O)N[C@@H](CC(C)C)C(=O)NCC(=O)N[C@@H](C)C(=O)N[C@@H](CC(C)C)C(=O)N[C@@H](CCCNC(=N)N)C(=O)N[C@@H](CCCCN)C(=O)N2)NC(=O)[C@H](CSSC[C@@H](C(=O)N[C@@H](CCCCN)C(=O)N[C@@H](Cc2ccc(O)cc2)C(=O)N[C@H](C(=O)N[C@@H](Cc2ccccc2)C(=O)O)C(C)C)NC(=O)[C@H](Cc2c[nH]c4ccccc24)NC(=O)[C@H](CCCNC(=N)N)NC(=O)[C@H](Cc2c[nH]cn2)NC(=O)[C@H]([C@@H](C)O)NC(=O)[C@H](CCCNC(=N)N)NC(=O)[C@H](CO)NC3=O)NC(=O)[C@H](CCCCN)NC(=O)[C@H](CC(=O)O)NC(=O)[C@H](CC(C)C)NC(=O)[C@H](CC(=O)O)NC(=O)[C@@H]2CCCN2C1=O [compound 867] (H-DCLGALRKCIPDLDKCCRPNLVCSRTHRWCKYVF-OH; disulfide 2-17, 9-23, 16-30)	> 5	4.9	> 5
CC[C@H](C)[C@@H]1NC(=O)[C@@H]2CSSC[C@@H]3NC(=O)[C@H](C(C)C)NC(=O)[C@H](CC(C)C)NC(=O)[C@H](CC(N)=O)NC(=O)[C@@H]4CCCN4C(=O)[C@H](CCCNC(=N)N)NC(=O)[C@H](CSSC[C@H](NC(=O)[C@@H](N)CC(=O)O)C(=O)N[C@@H](CC(C)C)C(=O)NCC(=O)N[C@@H](C)C(=O)N[C@@H](CC(C)C)C(=O)N[C@@H](CCCNC(=N)N)C(=O)N[C@@H](CCCCN)C(=O)N2)NC(=O)[C@H](CSSC[C@@H](C(=O)N[C@@H](CCCCN)C(=O)N[C@@H](Cc2ccc(O)cc2)C(=O)N[C@H](C(=O)N[C@@H](Cc2ccccc2)C(=O)O)C(C)C)NC(=O)[C@H](Cc2c[nH]c4ccccc24)NC(=O)[C@H](CCCNC(=N)N)NC(=O)[C@H](Cc2c[nH]cn2)NC(=O)[C@H]([C@@H](C)O)NC(=O)[C@H](CCCNC(=N)N)NC(=O)[C@H](CO)NC3=O)NC(=O)[C@H](CCCCN)NC(=O)[C@H](CC(=O)O)NC(=O)[C@H](CCSC)NC(=O)[C@H](CC(=O)O)NC(=O)[C@@H]2CCCN2C1=O [compound 868] (H-DCLGALRKCIPDMDKCCRPNLVCSRTHRWCKYVF-OH; disulfide 2-17, 9-23, 16-30)	> 5	> 5	> 5
CC[C@H](C)[C@@H]1NC(=O)[C@@H]2CSSC[C@@H]3NC(=O)[C@H](C(C)C)NC(=O)[C@H](CC(C)C)NC(=O)[C@H](CC(N)=O)NC(=O)[C@@H]4CCCN4C(=O)[C@H](CCCNC(=N)N)NC(=O)[C@H](CSSC[C@H](NC(=O)[C@@H](N)CC(=O)O)C(=O)N[C@@H](CC(C)C)C(=O)NCC(=O)N[C@@H](C)C(=O)N[C@@H](CC(C)C)C(=O)N[C@@H](CCCNC(=N)N)C(=O)N[C@@H](CCCCN)C(=O)N2)NC(=O)[C@H](CSSC[C@@H](C(=O)N[C@@H](CCCCN)C(=O)N[C@@H](Cc2ccc(O)cc2)C(=O)N[C@H](C(=O)N[C@@H](Cc2ccccc2)C(=O)O)C(C)C)NC(=O)[C@H](Cc2c[nH]c4ccccc24)NC(=O)[C@H](CCCNC(=N)N)NC(=O)[C@H](Cc2c[nH]cn2)NC(=O)[C@H]([C@@H](C)O)NC(=O)[C@H](CCCNC(=N)N)NC(=O)[C@H](CO)NC3=O)NC(=O)[C@H](CCCCN)NC(=O)[C@H](CC(=O)O)NC(=O)[C@H](CCC(N)=O)NC(=O)[C@H](CC(=O)O)NC(=O)[C@@H]2CCCN2C1=O [compound 869] (H-DCLGALRKCIPDQDKCCRPNLVCSRTHRWCKYVF-OH; disulfide 2-17, 9-23, 16-30)	> 5	> 5	> 5
CC[C@H](C)[C@@H]1NC(=O)[C@@H]2CSSC[C@@H]3NC(=O)[C@H](C(C)C)NC(=O)[C@H](CC(C)C)NC(=O)[C@H](CC(N)=O)NC(=O)[C@@H]4CCCN4C(=O)[C@H](CCCNC(=N)N)NC(=O)[C@H](CSSC[C@H](NC(=O)[C@@H](N)CC(=O)O)C(=O)N[C@@H](CC(C)C)C(=O)NCC(=O)N[C@@H](C)C(=O)N[C@@H](CC(C)C)C(=O)N[C@@H](CCCNC(=N)N)C(=O)N[C@@H](CCCCN)C(=O)N2)NC(=O)[C@H](CSSC[C@@H](C(=O)N[C@@H](CCCCN)C(=O)N[C@@H](Cc2ccc(O)cc2)C(=O)N[C@H](C(=O)N[C@@H](Cc2ccccc2)C(=O)O)C(C)C)NC(=O)[C@H](Cc2c[nH]c4ccccc24)NC(=O)[C@H](CCCNC(=N)N)NC(=O)[C@H](Cc2c[nH]cn2)NC(=O)[C@H]([C@@H](C)O)NC(=O)[C@H](CCCNC(=N)N)NC(=O)[C@H](CO)NC3=O)NC(=O)[C@H](CCCCN)NC(=O)[C@H](CC(=O)O)NC(=O)[C@H](CCCNC(=N)N)NC(=O)[C@H](CC(=O)O)NC(=O)[C@@H]2CCCN2C1=O [compound 870] (H-DCLGALRKCIPDRDKCCRPNLVCSRTHRWCKYVF-OH; disulfide 2-17, 9-23, 16-30)	> 5	1.4	> 5
